Laboratory results reported in patent publication US20020043656A1, “GREEN ORGANIC LUMINOPHOR” (priority 2000, published 2002).
Like-named read-outs stand apart in the source and are kept apart here.

What was measured:
[1] = Fluorescence (luminescence) spectra; format: physicochemical; settings: for Luminescence in toluene λmax: 365 nm excitation
Protocol: Fluorescence spectra in toluene were measured and absolute fluorescence quantum yields in crystals were determined.
The fluorescence spectra were measured using a setup including a 3MR-3 mirror monochromator, a FEU-1 8 photomultiplier, an M-95 microampermeter. A SVDT-95 lamp was used as the excitation source, the 365 nm exciting line was singled out of its spectrum.

[2] = Absolute fluorescence quantum yield, equal absorption technique; format: physicochemical
Protocol: The absolute quantum yield was determined using the equal absorption technique (A. S. Cherkasov, Z. Fiz. Khim. 29, 2209, […]).

[3] = Electron absorption spectra / extinction; format: physicochemical
Source text: The compound structure was confirmed by electron absorption spectra and IR ones.

[4] = cited from earlier work; for Luminescence in toluene λmax: prior art analogs
[5] = cited from earlier work; for Luminescence in toluene η (quantum yield): prior art analogs; for quantum yield η: prior art, medium not stated
[6] = prior art; cited from earlier work
[7] = prior art, cited from earlier work
[8] = various reagents; prior art; cited from earlier work

1-phenyl-5-(p-methoxyphenyl)-3-[1,8-naphthoylene-1′,2′-benzimidazol-4-yl]-2-pyrazol
Luminescence in toluene λmax [1]: 510 nm | Luminescence in toluene λmax ([1]; listed as Example 1): 495 nm | λmax.lum ([1]; medium not stated): > 510 nm | Luminescence in toluene η (quantum yield) ([2]; in toluene solution): 0.85 | quantum yield ([2]; medium not stated): approximately 0.82+0.05 | quantum yield of photoluminescence η ([2]; solid state (vacuum-deposited film)): 0.78 | maximum absorption (extinction coefficient) [3]: ≤ 30,000 | Absorption λ ([3]; in toluene): 412 nm

O=c1c2cccc3cccc(c32)c2nc3ccccc3n12 [Prior art emission range analog, 1,8-naphthoylene-1′,2′-benzimidazol]
luminescence spectral maximum wavelength ([4]; depending on the luminophor concentration): 490 to 510 nm | Luminescence in toluene λmax [4]: 490 nm | Luminescence in toluene η (quantum yield) [5]: 0.5 | Luminescence in toluene η (quantum yield) ([5]; listed as Lumogen yellow-green): > 0.5 | quantum yield η [5]: > 0.5 | extinction coefficient in the absorption maximum [6]: 8000 | solubility in organic media ([7]; organic media): soluble in organic media | solubility in water ([7]; water): essentially water-insoluble | chemical stability [8]: chemically stable against various reagents

COc1cccc2c(-c3ccc(N(C)C)cc3)c3nn(C)cc3nc12 [Prior art structure analog, 2-methyl-5-methoxy-9-(4-dimethylaminophenyl)-2H-pyrazolo[4,3-b]quinoline]
Luminescence in toluene λmax [4]: 510 nm | λmax.lum ([4]; prior art, medium not stated): 510 nm | Luminescence in toluene η (quantum yield) [5]: 0.8 | quantum yield η [5]: 0.8
